Seven compounds from patent US11834460B2, “Imide-based modulators of proteolysis and associated methods of use” (YALE UNIVERSITY, priority 2018, dated 2023) can be followed below.

SMILES strings stand for the structures.

What is called IC50 is the midpoint of a concentration-inhibition curve.

The assay has as its system c-Myc. Kind of assay: c-Myc ELISA assay protocol in 22RV-1 cells. The assay is classed as cell-based, human. To be noted: 18 h, read-out: cMyc IC50. On the procedure: In each bioassay, cells were treated with varying amounts of compounds encompassed by the present disclosure, as shown in Table 1. The degradation of the following proteins were evaluated in this study: TANK-binding kinase 1 (TBK1), estrogen receptor α (ERα), bromodomain-containing protein 4 (BRD4), androgen receptor (AR), and c-Myc.
5. c-Myc ELISA Assay Protocol
22RV-1 cells were purchased from ATCC and cultured in RPMI+10% FBS media. Cells were harvested using trypsin (Gibco #25200-114), counted and seeded at 30,000 cells/well at a volume of 75 μL/well in RPMI +10% FBS media in 96-well plates. The cells were dosed with compounds diluted in 0.1% DMSO, incubated for 18 h then washed and lysed in 50 uL RIPA buffer (50 mM Tris pH8, 150 mM NaCl, 1% Tx-100, 0.1% SDS, 0.5% sodium deoxycholate) supplemented with protease and phosphatase inhibitors. The lysates were clarified at 4000 rpm at 4° C. for 10 minutes then aliquots were added into a 96-well ELISA plate of Novex Human c-myc ELISA kit from Life Technologies Catalog #KHO2041. 50 ul of c-Myc Detection antibody was added into every well, the plates incubated at room temperature for 3 hrs, then washed with ELISA wash buffer. 100 uL of the anti-rabbit IgG-HRP secondary antibody was added to each well and incubated at room temperature for 30 minutes. The plates were washed with ELISA wash buffer, 100 μL TMB added to each well, and then monitored every 5 minutes for a color change. 100 μL of stop solution is added and the plates read at 450 nm.
Background: In an ELISA, binding on a coated surface is turned into a signal by an enzyme label.
Consider `Cc1sc2c(c1C)C(c1ccc(Cl)cc1)=N[C@@H](CC(=O)N[C@@H](C)c1ccc(OCCCCNc3cccc4c3C(=O)N(C3CCC(=O)NC3=O)C4=O)cc1)c1nnc(C)n1-2` (stereo partly drawn) [Compound 23, 2-((9S)-7-(4-chlorophenyl)-4,5,13-trimethyl-3-thia-1,8,11,12-tetraazatricyclo [8.3.0.02,6]trideca-2(6),4,7,10, 12-pentaen-9-yl)-N-((1S)-1-(4-(4-((2-(2,6-dioxopiperidin-3-yl)-1,3-dioxo-2,3-dihydro-1H-isoindol-4-yl)amino)butoxy)phenyl)ethyl) acetamide], for which the IC50 was greater than 50 nM. The same measure for `Cc1sc2c(c1C)C(c1ccc(Cl)cc1)=N[C@@H](CC(=O)NCCCOCCCNc1cccc3c1C(=O)N(C1CCC(=O)NC1=O)C3=O)c1nnc(C)n1-2` (stereo partly drawn) [Compound 24, 2-((9S)-7-(4-chlorophenyl)-4,5,13-trimethyl-3-thia-1,8,11,12-tetraazatricyclo [8.3.0.02,6]trideca-2(6),4,7,10, 12-pentaen-9-yl)-N-(3-(3-((2-(2,6-dioxopiperidin-3-yl)-1,3-dioxo-2,3-dihydro-1H-isoindol-4-yl)amino)propoxy)propyl)acetamide]: less than 50 nM; for `Cc1sc2c(c1C)C(c1ccc(Cl)cc1)=N[C@@H](CC(=O)NCCCNc1cccc3c1C(=O)N(C1CCC(=O)NC1=O)C3=O)c1nnc(C)n1-2` (stereo partly drawn) [Compound 25, 2-((9S)-7-(4-chlorophenyl)-4,5,13-trimethyl-3-thia-1,8,11,12-tetraazatricyclo [8.3.0.02,6]trideca-2(6),4,7,10,12-pentaen-9-yl)-N-(3-((2-(2,6-dioxopiperidin-3-yl)-1,3-dioxo-2,3-dihydro-1H-isoindol-4-yl)amino)propyl) acetamide]: greater than 50 nM; for `Cc1sc2c(c1C)C(c1ccc(Cl)cc1)=N[C@@H](CC(=O)NCCOCCNc1cccc3c1C(=O)N(C1CCC(=O)NC1=O)C3=O)c1nnc(C)n1-2` (stereo partly drawn) [Compound 27, 2-((9S)-7-(4-chlorophenyl)-4,5,13-trimethyl-3-thia-1,8,11,12-tetraazatricyclo [8.3.0.02,6]trideca-2(6),4,7,10,12-pentaen-9-yl)-N-(2-(2-((2-(2,6-dioxopiperidin-3-yl)-1,3-dioxo-2,3-dihydro-1H-isoindol-4-yl)amino)ethoxy)ethyl)acetamide]: less than 50 nM. Take `Cc1sc2c(c1C)C(c1ccc(Cl)cc1)=N[C@@H](CC(=O)N[C@H](C)c1ccc(OCCCCNc3cccc4c3C(=O)N(C3CCC(=O)NC3=O)C4=O)cc1)c1nnc(C)n1-2` (stereo partly shown) [Compound 28]: the IC50 was less than 50 nM.

Take `Cc1sc2c(c1C)C(c1ccc(Cl)cc1)=N[C@@H](CC(=O)N[C@H](C)c1ccc(OCCOCCNc3cccc4c3C(=O)N(C3CCC(=O)NC3=O)C4=O)cc1)c1nnc(C)n1-2` (stereo partly drawn) [Compound 29, 2-((9S)-7-(4-chlorophenyl)-4,5,13-trimethyl-3-thia-1,8,11,12-tetraazatricyclo [8.3.0.02,6]trideca-2(6),4,7,10, 12-pentaen-9-yl) N-((1R)-1-(4-(2-(2-((2-(2,6-dioxopiperidin-3-yl)-1,3-dioxo-2,3-dihydro-1H-isoindol-4-yl)amino)ethoxy)ethoxy)phenyl)ethyl) acetamide]: the IC50 is less than 50 nM. `Cc1sc2c(c1C)C(c1ccc(Cl)cc1)=N[C@@H](CC(=O)N[C@H](C)c1ccc(OCCCNc3cccc4c3C(=O)N(C3CCC(=O)NC3=O)C4=O)cc1)c1nnc(C)n1-2` (stereo partly drawn) [Compound 30, 2-((9S)-7-(4-chlorophenyl)-4,5,13-trimethyl-3-thia-1,8,11,12-tetraazatricyclo [8.3.0.02,6]trideca-2(6),4,7,10, 12-pentaen-9-yl)-N-((1R)-1-(4-(3-((2-(2,6-dioxopiperidin-3-yl)-1,3-dioxo-2,3-dihydro-1H-isoindol-4-yl)amino)propoxy)phenyl)ethyl) acetamide]: the 50% inhibitory concentration (IC50) was less than 50 nM.
